Patent US20060194814A1, “Benzamide compounds” (priority 2003, published 2006)
Where a name gives a salt, the structure may show the parent alone. Read-outs that look alike come from different tables or passages of the source.

Tests used:
PKA = test: dbcAMP-stimulated PKA activity (PepTag assay) in Y1 cells; assay type: cell-based, mouse; set-up: dose or concentration left out as unconfirmed
Description: Y1 cells were cultured in 6-well plates (2×10^5 cells per well) and treated as described above for steroid biosynthesis. At the end of the incubation, cells were washed twice with PBS and proteins were extracted using an extraction buffer (25 mM tris-HCl, pH 7.4, 0.5 mM EDTA, 0.5 mM EGTA, 10 mM -mercaptoethanol, 0.5 mM PMSF, 1 g/ml leupeptin, and 1 g/ml aprotinin). After centrifugation at 18,500 g for 15 minutes, the supernatants were kept for PKA activity assay. Samples were processed using the PepTag assay for non-radioactive detection of PKA activity following the manufacturer's recommendations (Promega Corporation, Madison, Wis.).

HIV-1 IIIB strain [1] = test: HIV-1 IIIB replication in HeLa cells, 48 hours pre-medication; assay type: cell-based; details: 48 hours pretreatment; all concentrations tested
P-450scc enzyme = test: Immunoblot of P-450scc expression in Y1 cells; assay type: cell-based, mouse; details: immunoblot of cell extracts
Description: At the end of the treatment protocol described above, Y1 cells at 90% confluency were washed 2 times with PBS, sonicated 15 seconds in extraction buffer and centrifuged at 18,500 g for 15 minutes at 4° C. Pellets were resuspended in ice-cold lysis buffer (1% Nonidet 40 in extraction buffer), sonicated briefly, and incubated on ice for 1 hour. After centrifugation (22,500 g×30 min, 4° C.), the supernatant was mixed in sample buffer 6× (0.27 M SDS, 0.6 M dithiothreitol, 0.18 M bromphenol blue in 7 ml of 0.5 M Tris-HCl, pH 6.8, and 3 ml glycerol) and boiled for 5 minutes. Proteins were subjected to SDS-PAGE (4-20% gradient SDS polyacrylamide gel) and electrophoretically transferred onto nitrocellulose membranes. The transblot sheets were blocked with 5% non fat dry milk in 25 mM Tris HCl, pH 7.5, 150 mM NaCl, and 0.1% Tween 20 overnight at 4° C. Membranes were then incubated with appropriately diluted primary antibodies 1:800 for anti-P-450scc (Research Diagnostics Inc. Flanders, N.J.) and 1:200 for anti-StAR (Amri et al., 1996), and the reaction was detected by a peroxidase-conjugated secondary antibody (Santa Cruz Biotechnology, Santa Cruz, Calif.) and enhanced chemiluminescence (Amersham Life, Arlington Heights, Ill.). The densities of the appropriate bands were determined using the OptiQuant Acquisition & Analysis software (Packard BioScience).

HIV-1 IIIB strain [2] = test: HIV-1 IIIB replication in HeLa indicator cells (AV-Finder-HIV assay), no pre-medication; assay type: cell-based
[3] = test system: MA-10 mouse Leydig tumor cells; test: dbcAMP-induced progesterone synthesis in MA-10 cells; assay type: cell-based
Description: (§1) Culture media were then changed and cells were stimulated with 1 mM dbcAMP and the treatment for 24 to 48 hours. […] The synthesis of 20 —OH progesterone and progesterone in Y1 and MA-10 cell media respectively were measured by RIA (Brown et al., 1992). H295R human adrenal tumor cells were seeded in 48-well plates at 10^5 cells/well and incubated for 24 hours. […] At the end of the incubation time period, cells were treated with 1 mM dbcAMP for 48 hours. Cortisol levels in the media were determined by radioimmunoassay as previously described (Amri et al., 1996).

HMG-CoA reductase mRNA [4] = test: HMG-CoA reductase mRNA expression by Q-PCR in Y1 cells; assay type: cell-based, mouse
Description: (§2) After treatment, cells were stimulated with 1 mM dbcAMP for 24 hours. At the end of the incubation, total cell RNA was extracted using RNA STAT-60 (Tel-Test Inc, Friendswood, Tex.) according to the manufacturer's instructions. HMG-CoA reductase mRNA was quantified by Q-PCR using the ABI Prism 7700 sequence detection system (Perkin-Elmer/Applied Biosystems, Foster City, Calif.). RT reaction was performed using TaqMan® Reverse Transcription Reagents with 1 g total RNA and random hexamers as primers for each reaction according to the manufacturer's instructions. For quantifying mouse HMG-CoA reductase mRNA with Q-PCR, the primers were designed according to GenBank Accession Number BC 019782 using PE/AB Primer Express software, which is specifically designed for the selection of primers and probes. The forward primer was 5′-[…]-3′ (22 nucleotides; SEQ ID NO:1) and reverse primer was 5′-[…]-3′ (23 nucleotides; SEQ ID NO:2), respectively. The primers were synthesized by Bio-Synthesis Inc. (Lewisville, Tex.). Reactions were performed in a reaction mixture consisting of a 20 l volume solution containing 10 l SYBR® Green PCR Master Mix and 1 l primers mix (5 M each) with 2 l cDNA.

[5] = test system: multi-drug resistant HIV MDR-769 strain; test: HIV MDR 769 strain replication in HeLa cells, without pre-medication; assay type: cell-based
[6] = test system: MA-10 mouse Leydig tumor cells; assay type: cell-based
Description: Cell viability at the end of the incubation protocol described above was assessed using the mitochondrial integrity 3-(4,5-dimethylthiazol-2-yl)-2,5-diphenyl tetrazolium bromide (MTT) assay (Trevigen, Gaithersburg, Md.). Briefly, 10 l of the MTT solution were added to the cells in 100 l medium. After an incubation period of 4 hours, 100 l of detergent were added and cells were incubated overnight at 37° C. Formazan blue formation was quantified at 600 nm and 690 nm using the Victor quantitative detection spectrophotometer (EGG-Wallac, Gaithersburg, Md.) and the results expressed as (OD600-OD690).

HMG-CoA reductase mRNA [7] = test: HMG-CoA reductase mRNA expression by Q-PCR in Hepa1-6 cells; assay type: cell-based; details: Hepa1-6 mouse liver hepatoma cells
Description: as §2

HMG-CoA reductase = HMG-CoA reductase activity in procaine-treated Y1 cells; assay type: cell-based, mouse; set-up: percent inhibition of HMG-CoA reductase activity: unit of the concentration uncertain
Description: Cells were washed twice with ice-cold PBS and incubated with ice-cold assay buffer (0.1M sucrose, 40 mM KH2PO4, 30 mM EDTA, 50 mM KCl, 5 mM DTT, 0.25% (v/v) of Brij 96, at pH 7.4) on ice for 20 minutes. After centrifugation for 3 minutes at 14000 g (4° C.) the supernatants were collected and used for HMG-CoA reductase activity assay. […] The reaction was started by adding substrate (^14C-HMG-CoA, 0.1 Ci) and stopped after 45 minutes by adding 10-1 of HCl 6M. ^3H-mevalonolactone was also added to the samples as an extraction recovery marker. After an additional 30 minutes incubation time, to allow complete lactonization of the product, the mixture was centrifuged.

[8] = test system: H295R human adrenal tumor cells; test: dbcAMP-induced cortisol synthesis in H295R cells; assay type: cell-based
Description: as §1

CCN(CC)CCOC(=O)c1ccc(N)cc1 [SP01, procaine HCl]
effect on dbcAMP-stimulated PKA activity (PKA): no significant effect
inhibition of HIV replication (HIV-1 IIIB strain [1]): 75%
effect on expression of the P-450scc enzyme (P-450scc enzyme): did not modify
efficacy in reducing HIV-1 IIIB replication compared to AZT, ddI or 3TC (HIV-1 IIIB strain [2]; human cells): efficacy higher than AZT, ddI or 3TC
efficacy on HIV-1 IIIB viral replication compared to 3TC (HIV-1 IIIB strain [2]; no pre-medication, concentrations up to 0.1 μM): higher efficacy than the classical antiviral agent 3TC
effect on dbcAMP-induced progesterone synthesis [3]: did not affect
effect on dbcAMP-induced HMG-CoA reductase mRNA levels (HMG-CoA reductase mRNA [4]; pretreatment for 24 hours): reduced in a dose-dependent manner
earliest treatment time inhibiting dbcAMP-induced HMG-CoA reductase mRNA expression (HMG-CoA reductase mRNA [4]; time-course): 6 h
effect on HIV MDR 769 strain replication [5]: effectively blocked
effect on HIV MDR 769 strain replication ([5]; concentrations higher than 1 nM): not effective
inhibition of HIV MDR 769 viral replication ([5]; concentrations up to 1 nM): 75%
effect on cell viability (MTT) [6]: did not affect MA-10 cell viability
effect on dbcAMP-induced HMG-CoA reductase mRNA levels (HMG-CoA reductase mRNA [7]): inhibited
percent inhibition of HMG-CoA reductase activity (HMG-CoA reductase; concentration 1 (unit uncertain)): 44%
percent inhibition of HMG-CoA reductase activity (HMG-CoA reductase; concentration 10 (unit uncertain)): 72%
percent inhibition of HMG-CoA reductase activity (HMG-CoA reductase; concentration 100 (unit uncertain)): 70
concentration giving maximal inhibition of HMG-CoA reductase activity (HMG-CoA reductase; dbcAMP stimulated): 10 µM
effect on dbcAMP-stimulated cortisol production [8]: inhibited the dbcAMP-stimulated cortisol production in a dose-dependent manner
effect on basal cortisol production ([8]; basal): without effecting basal cortisol production
